Results published in publication PMC5397615, “Rapid Identification and Isolation of Inhibitors of Rat Lens Aldose Reductase and Antioxidant in Maackia amurensis” (BioMed Research International, 2017).

Columns and labels:
[1] = ABTS radical scavenging activity (TEAC assay); conditions: for IC50: read-out: Antioxidant IC50
[2] = ABTS-offline HPLC assay of the EtOAc fraction; conditions: 254 nm; for Antioxidant quantitative reduction (%): amount of peak decrease in ABTS-offline HPLC; for Peak area change after ABTS (in words): EtOAc fraction spiked with ABTS solution, Figure 1(a)
[3] = target: T1, rat lens aldose reductase (RLAR) (Rattus norvegicus, UniProt P07943); assay: Rat lens AR inhibitory activity assay; format: biochemical; conditions: isolated compounds; for IC50: read-out: RLAR inhibition IC50
T1 construct: Rat lens (RL) homogenate was prepared according to the modified method of Hayman and Kinoshita; from tissue; host or cells: lens of male Sprague-Dawley rats (homogenate supernatant, partially purified)

rat lens AR = target: T2, rat lens AR (Rattus norvegicus, UniProt P07943); assay: HPLC microfractionation rat lens AR assay; format: biochemical; set-up: concentration or dose not given beside the values; conditions: amount of efficacy in HPLC microfractionation (Table 3)
T2 construct: Rat lens (RL) homogenate was prepared according to the modified method of Hayman and Kinoshita; from tissue; host or cells: lens of male Sprague-Dawley rats (homogenate supernatant, partially purified)

[4] = Partition coefficient (K) in two-phase HSCCC solvent systems; format: physicochemical
[5] = n-Hexane-ethyl acetate-methanol-water 2.5 : 7.5 : 5 : 5 (v/v)
[6] = n-Hexane-ethyl acetate-methanol-water 3 : 7 : 4.5 : 5.5 (v/v)
[7] = n-Hexane-ethyl acetate-methanol-water 4 : 6 : 2.5 : 7.5 (v/v)
[8] = n-Hexane-ethyl acetate-methanol-water 4 : 6 : 3.5 : 5.5 (v/v)

SMILES | IC50 ([1]; isolated compounds) [µM] | Antioxidant quantitative reduction (%) [2] [%] | IC50 [3] [µM] | RLAR inhibition, Inhibition (%) (rat lens AR) | K values [4, 5] | K values [4, 6] | K values [4, 7] | K values [4, 8] | K values ([4]; n-Heptane-ethyl acetate-methanol-water 1 : 6 : 1 : 6 (v/v)) | Antioxidant IC50 ([1]; concentration of 50% inhibition) [µg/mL] | Antioxidant TEAC (Trolox equivalent antioxidant capacity) ([1]; relative to Trolox = 1.00) | Antioxidant activity (in words) ([1]; isolated compounds) | Peak area change after ABTS (in words) [2] | K values ([4]; n-Hexane-ethyl acetate-methanol-water 1 : 3 : 1 : 3 (v/v)) | RLAR activity (in words) [3]
COc1ccc(-c2coc3cc(O)ccc3c2=O)cc1 [Compound 9, formononetin] | > 500 | 0.69 | 69.2 ± 2.57 | 30.11 | 0.33 | 0.40 | 3.39 | 0.39 | – | – | – | – | – | – | –
Oc1ccc(/C=C/c2cc(O)cc(O)c2)cc1 [Compound 6, resveratrol] | 11.05 ± 0.04 | – | 118 ± 3.12 | 29.31 | 0.57 | 0.59 | 4.62 | 0.90 | 9.56 | – | – | – | – | – | –
Cc1c(C)c2c(c(C)c1O)CCC(C)(C(=O)O)O2 (stereo not drawn) [Trolox, 6-hydroxy-2,5,7,8-tetrame-thylchroman-2-carboxylic acid, reference compound] | – | – | – | – | – | – | – | – | – | 8.72 ± 0.01 | 1.00 | – | – | – | –
COc1c(O[C@@H]2O[C@H](CO)[C@@H](O)[C@H](O)[C@H]2O)cc2occ(-c3ccc(O)cc3)c(=O)c2c1O [Compound 4, tectoridin] | > 500 | 8.43 | 50.4 ± 2.17 | 43.37 | – | – | – | – | – | – | – | did not have antioxidant activity | slightly decreased | – | –
O=c1c(-c2ccc(O)cc2)coc2cc(O)ccc12 [Compound 7, daidzein] | > 500 | 0.48 | 152 ± 2.91 | 28.14 | – | – | – | – | – | – | – | – | – | – | –
O=c1c(-c2ccc(O)cc2)coc2cc(O)cc(O)c12 [Compound 8, genistein] | > 500 | 2.24 | 57.1 ± 3.23 | 38.54 | 2.04 | 2.52 | 15.01 | 3.73 | – | – | – | – | – | 35.34 | –
Oc1cc(O)cc(/C=C/c2ccc(O)c(O)c2)c1 [Compound 5, piceatannol] | 6.73 ± 0.04 | 34.68 | > 500 | – | 0.37 | 0.34 | 3.91 | 0.37 | – | – | – | – | peak area reductions | – | did not have RLAR activity
COc1cc(/C=C/C(=O)O)ccc1O [Compound 3, trans-ferulic acid] | 13.51 ± 0.04 | 20.06 | > 500 | 5.21 | – | – | – | – | – | – | – | – | peak area reductions | – | did not have RLAR activity
O=C(/C=C/c1ccc(O)c(O)c1)O[C@@H]1C[C@](O)(C(=O)O)C[C@@H](O)[C@H]1O [Compound 1, chlorogenic acid] | – | – | 4.2 ± 3.2 | 51.02 | – | – | – | – | – | – | – | – | – | – | –
